Data set [1] deals with Epidermal growth factor receptor (Homo sapiens, UniProt P00533). Put plainly: Inhibition of human EGFR at 10 uM using poly[Glu:Tyr] (4:1) as substrate measured after 120 mins in presence of [gamma33P]ATP by P81 ion exchange chromatographic method relative to control.
Data set [2] concerns the target T1, Tyrosine-protein kinase Tec (Homo sapiens, UniProt P42680).
T1 sequence (P42680 whole entry): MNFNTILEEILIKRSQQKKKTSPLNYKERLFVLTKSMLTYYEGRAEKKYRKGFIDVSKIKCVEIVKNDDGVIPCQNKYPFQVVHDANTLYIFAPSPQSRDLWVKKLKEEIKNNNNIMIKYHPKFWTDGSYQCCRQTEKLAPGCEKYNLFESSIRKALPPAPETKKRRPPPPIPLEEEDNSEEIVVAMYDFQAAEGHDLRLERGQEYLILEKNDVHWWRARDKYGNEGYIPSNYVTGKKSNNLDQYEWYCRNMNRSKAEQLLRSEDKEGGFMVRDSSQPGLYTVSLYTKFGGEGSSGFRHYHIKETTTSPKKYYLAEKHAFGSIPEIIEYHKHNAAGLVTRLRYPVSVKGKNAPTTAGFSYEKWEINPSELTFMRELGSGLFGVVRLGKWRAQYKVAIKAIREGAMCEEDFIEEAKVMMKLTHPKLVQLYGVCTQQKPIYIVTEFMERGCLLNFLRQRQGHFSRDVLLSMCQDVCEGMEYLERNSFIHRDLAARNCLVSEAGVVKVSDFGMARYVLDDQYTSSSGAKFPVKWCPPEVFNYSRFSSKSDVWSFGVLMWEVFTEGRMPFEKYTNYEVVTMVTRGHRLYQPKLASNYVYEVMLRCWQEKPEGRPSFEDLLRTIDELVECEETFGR
Put plainly: Inhibition of human TEC using poly[Glu:Tyr] (4:1) as substrate measured after 120 mins in presence of [gamma33P]ATP by P81 ion exchange chromatographic method.

Data set [3] deals with T2, Tyrosine-protein kinase Tec (Homo sapiens) (UniProt P42680).
T2 sequence (whole entry): T1 sequence (P42680 whole entry)
Put plainly: Inhibition of human TEC at 10 uM using poly[Glu:Tyr] (4:1) as substrate measured after 120 mins in presence of [gamma33P]ATP by P81 ion exchange chromatographic method relative to control.

Data set [4] is described as follows: Octanol-buffer distribution co-efficient, log D of the compound at pH 7.4. Format: physicochemical.
Data set [5] is described as follows: Efflux ratio of apparent permeability from basolateral to apical over apical to basolateral side in MDCK2-MDR1 cells at 2 uM after 2.5 hrs LC-MS/MS analysis. Format: ADME, cell-based, Canis lupus familiaris. The note with it: dog, MDCK-MDR1.
Data set [6] is described as follows: Unbound plasma concentration in rat at 2 uM measured after 4 hrs by LC-MS/MS analysis. It counts as ADME, cell-free.
The target in data set [7] is Fibroblast growth factor receptor 1 (Homo sapiens, UniProt P11362). Briefly: Inhibition of recombinant human His-tagged FGFR1 cytoplasmic domain (308 to 731 residues) expressed in baculovirus expression system using tyr 04 as substrate measured within 60 mins by Z-LYTE assay.
The target of data set [8] is Fibroblast growth factor receptor 4 (Homo sapiens, UniProt P22455). Briefly: Inhibition of recombinant human N-terminal His-tagged FGFR4 cytoplasmic domain […] expressed in baculovirus expression system using tyr 04 peptide as substrate measured within 90 mins by Z-LYTE assay.
A short description of data set [9]: Unbound plasma concentration in human at 2 uM measured after 4 hrs by LC-MS/MS analysis. Format: ADME, cell-free.
The nature of data set [10]: Volume of distribution in Balb/c mouse at 0.2 mg/kg, iv administered as single bolus dose by LC-MS/MS analysis. It counts as ADME, organism-based. The note with it: in vivo.
In data set [11] the test system is Plasma. Put plainly: Drug degradation in human plasma measured after 2 hrs by metabolite identification method. It counts as ADME, cell-free.

Each structure is given as a SMILES string.

Sequence of Epidermal growth factor receptor (P00533 whole entry): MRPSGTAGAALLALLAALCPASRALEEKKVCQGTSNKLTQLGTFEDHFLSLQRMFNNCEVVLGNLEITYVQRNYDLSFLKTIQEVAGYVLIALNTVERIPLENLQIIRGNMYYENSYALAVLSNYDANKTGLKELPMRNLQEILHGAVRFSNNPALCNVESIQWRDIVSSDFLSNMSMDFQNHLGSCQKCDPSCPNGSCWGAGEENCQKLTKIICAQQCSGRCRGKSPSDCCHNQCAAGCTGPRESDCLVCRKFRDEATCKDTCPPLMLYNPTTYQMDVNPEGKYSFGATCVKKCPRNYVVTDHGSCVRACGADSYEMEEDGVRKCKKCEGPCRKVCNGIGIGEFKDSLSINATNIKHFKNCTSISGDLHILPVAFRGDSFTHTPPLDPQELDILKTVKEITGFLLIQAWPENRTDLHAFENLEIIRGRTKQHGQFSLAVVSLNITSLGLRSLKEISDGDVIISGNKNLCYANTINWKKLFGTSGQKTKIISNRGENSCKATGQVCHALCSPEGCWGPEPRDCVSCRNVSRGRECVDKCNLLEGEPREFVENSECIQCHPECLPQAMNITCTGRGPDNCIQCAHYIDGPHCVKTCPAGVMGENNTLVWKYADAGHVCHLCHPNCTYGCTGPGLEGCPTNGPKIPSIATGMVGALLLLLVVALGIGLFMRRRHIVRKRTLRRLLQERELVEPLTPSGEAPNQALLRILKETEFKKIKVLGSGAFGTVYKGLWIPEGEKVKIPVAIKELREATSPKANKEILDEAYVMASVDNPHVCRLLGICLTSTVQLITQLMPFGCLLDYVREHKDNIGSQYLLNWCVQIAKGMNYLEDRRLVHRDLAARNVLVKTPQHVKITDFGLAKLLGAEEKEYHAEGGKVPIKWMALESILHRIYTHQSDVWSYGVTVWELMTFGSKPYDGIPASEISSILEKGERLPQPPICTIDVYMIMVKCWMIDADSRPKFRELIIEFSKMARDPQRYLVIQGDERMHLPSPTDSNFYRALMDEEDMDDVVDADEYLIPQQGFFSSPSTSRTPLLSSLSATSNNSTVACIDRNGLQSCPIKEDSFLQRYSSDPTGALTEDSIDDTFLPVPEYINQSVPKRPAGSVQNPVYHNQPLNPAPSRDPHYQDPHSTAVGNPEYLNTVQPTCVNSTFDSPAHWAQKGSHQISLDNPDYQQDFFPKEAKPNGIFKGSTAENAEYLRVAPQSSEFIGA
Sequence of Fibroblast growth factor receptor 1 (P11362 whole entry, the tested form may be a part): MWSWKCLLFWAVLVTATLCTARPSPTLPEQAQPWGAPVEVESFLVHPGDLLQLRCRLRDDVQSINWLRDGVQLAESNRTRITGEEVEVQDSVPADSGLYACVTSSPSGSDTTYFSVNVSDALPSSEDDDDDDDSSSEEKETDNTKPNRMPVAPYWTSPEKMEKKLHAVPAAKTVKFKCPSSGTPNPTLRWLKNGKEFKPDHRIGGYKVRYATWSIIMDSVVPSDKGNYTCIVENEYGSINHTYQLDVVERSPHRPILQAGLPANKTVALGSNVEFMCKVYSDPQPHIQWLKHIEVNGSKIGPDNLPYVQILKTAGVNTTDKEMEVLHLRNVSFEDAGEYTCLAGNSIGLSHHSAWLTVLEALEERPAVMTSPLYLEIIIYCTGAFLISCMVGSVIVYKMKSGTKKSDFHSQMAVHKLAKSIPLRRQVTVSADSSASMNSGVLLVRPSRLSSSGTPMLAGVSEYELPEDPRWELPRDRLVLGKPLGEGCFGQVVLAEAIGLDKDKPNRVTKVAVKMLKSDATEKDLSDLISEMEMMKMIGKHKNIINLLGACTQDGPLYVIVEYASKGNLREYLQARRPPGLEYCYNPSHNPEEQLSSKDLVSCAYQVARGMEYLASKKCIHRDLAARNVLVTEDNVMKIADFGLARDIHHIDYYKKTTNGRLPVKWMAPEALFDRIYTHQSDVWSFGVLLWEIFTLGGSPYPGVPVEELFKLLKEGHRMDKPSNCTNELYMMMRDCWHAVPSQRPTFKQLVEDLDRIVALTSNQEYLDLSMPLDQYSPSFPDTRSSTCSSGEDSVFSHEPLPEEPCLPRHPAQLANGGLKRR
Sequence of Fibroblast growth factor receptor 4 (P22455 whole entry, the tested form may be a part): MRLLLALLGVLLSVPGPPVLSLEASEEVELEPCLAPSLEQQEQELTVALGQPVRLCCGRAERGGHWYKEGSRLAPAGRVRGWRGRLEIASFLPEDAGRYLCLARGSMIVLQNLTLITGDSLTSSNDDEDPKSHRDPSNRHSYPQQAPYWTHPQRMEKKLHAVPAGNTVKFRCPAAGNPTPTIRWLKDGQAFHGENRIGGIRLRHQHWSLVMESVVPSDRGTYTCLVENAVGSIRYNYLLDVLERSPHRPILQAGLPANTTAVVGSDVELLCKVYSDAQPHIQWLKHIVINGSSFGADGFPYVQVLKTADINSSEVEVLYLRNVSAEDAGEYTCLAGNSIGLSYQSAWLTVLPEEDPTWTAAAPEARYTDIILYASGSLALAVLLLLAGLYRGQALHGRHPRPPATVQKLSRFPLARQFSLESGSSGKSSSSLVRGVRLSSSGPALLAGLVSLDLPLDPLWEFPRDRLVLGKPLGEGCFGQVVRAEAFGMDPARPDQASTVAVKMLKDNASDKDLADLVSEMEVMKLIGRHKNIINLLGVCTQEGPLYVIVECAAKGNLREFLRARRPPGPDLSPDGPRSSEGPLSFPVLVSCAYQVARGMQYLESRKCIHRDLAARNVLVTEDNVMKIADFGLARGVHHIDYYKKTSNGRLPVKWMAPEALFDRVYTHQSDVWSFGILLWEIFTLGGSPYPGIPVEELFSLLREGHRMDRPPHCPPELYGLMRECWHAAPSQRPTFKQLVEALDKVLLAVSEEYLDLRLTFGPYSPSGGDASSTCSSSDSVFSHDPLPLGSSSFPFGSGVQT

On to `C=CC(=O)Nc1cccc(C)c1Nc1ncc2cc(-c3c(Cl)c(OC)cc(OC)c3Cl)ccc2n1`, for which the inhibition in data set [1] was 1%; in [3] it was -5%. Also, the IC50 in data set [2] was over 10 µM. Moreover, the logD in [4] was over 4.5.

For the molecule `C=CC(=O)N[C@H]1COC[C@H]1Nc1ncc(OCc2c(F)c(OC)cc(OC)c2F)cn1`, in [5], the efflux ratio at 2.5 h, 2 µM turned out to be 3.8. In addition, the fraction unbound at 4 h, 2 µM stood at 0.309 in [6] and 0.354 in data set [9]. Also, the inhibition in [1] is 1%; in [3] it was -1%. Moreover, the IC50 in data set [7] was 3.5 µM; in data set [8], 0.013 µM; in data set [2], over 10 µM. In data set [10], the Vd worked out at 0.58 L/kg. The logD in data set [4] was found to be 1.8.

On to `C=CC(=O)Nc1cccc(C)c1Nc1ncc(OCc2c(F)c(OC)cc(OC)c2F)cn1`, for which the efflux ratio at 2.5 h, 2 µM in data set [5] worked out at 1. Further, the inhibition in data set [1] was found to be 6%. Further, the results for the IC50 in data set [7], in [8] and in [2] were 8.6 µM, 0.003 µM and over 10 µM, respectively. For the same molecule, the Drug degradation in [11] came out at 30%. This molecule returned a logD in [4] of 3.

The inhibition is the change of the read-out against control, counted positive when it falls. As usually defined, the IC50 is the concentration that inhibits the measured activity by half. By logD is commonly meant lipophilicity at a set pH, counting ionised and neutral species. Low values mean lower lipophilicity, high ones higher lipophilicity. The efflux ratio is the permeability from basolateral to apical divided by that in the opposite direction, in the common usage. In general, fraction unbound refers to the share of the substance not bound to proteins or other matrix. A high value points to much free substance. Usually Vd stands for a proportionality between amount in the body and measured concentration, not a real space.

The record behind these values is ChEMBL document CHEMBL4017480, “Discovery and optimization of selective FGFR4 inhibitors via scaffold hopping” (Bioorg Med Chem Lett, 2017).
